# Reference: patent US20230233650A1, “NOVEL FATTY ACID MODIFIED UROCORTIN 2 DERIVATIVES AND THE USES THEREOF” (Novo Nordisk A/S, priority 2021, published 2023)
# Numbered stars: 1 amine (or outer) side, 2 acyl side, 3 side chain; on linkers, the order of the positions; unused ones are H or OH. Side chains are listed from the residue outwards. Peptide text beside a SMILES is read from it. * marks the point of attachment. C20 diacid = O=C(O)CCCCCCCCCCCCCCCCCCC(=O)*; γGlu = O=C(O)[C@H](CCC(=O)[*:2])N[*:1]; AEEA = NCCOCCOCC(=O)O
# Legend:
# Human CRF1 receptor = biological target: T1, Human CRF1 receptor (Homo sapiens, UniProt P34998); assay: CRF1 receptor binding, scintillation proximity assay (SPA); details: displacement of [125I]-Sauvagine, CHO-K1 cell membranes
# T1 construct: host or cells: CHO-K1 (membrane preparation)
# T1 sequence (P34998 24-415): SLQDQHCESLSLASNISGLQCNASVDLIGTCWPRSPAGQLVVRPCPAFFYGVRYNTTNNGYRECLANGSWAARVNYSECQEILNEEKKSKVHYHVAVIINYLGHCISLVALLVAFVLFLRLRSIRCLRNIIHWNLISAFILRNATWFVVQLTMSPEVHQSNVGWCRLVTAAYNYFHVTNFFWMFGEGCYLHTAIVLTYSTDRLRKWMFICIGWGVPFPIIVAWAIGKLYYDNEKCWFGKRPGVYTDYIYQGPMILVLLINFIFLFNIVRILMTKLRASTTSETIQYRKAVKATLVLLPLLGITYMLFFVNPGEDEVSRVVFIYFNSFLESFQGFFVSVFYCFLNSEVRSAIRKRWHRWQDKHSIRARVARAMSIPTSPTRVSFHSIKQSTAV
# Description: The purpose of this example was to test the in vitro binding of the compounds of the invention to receptor subtypes CRF1 and CRF2. The in vitro binding of the compounds was determined in a scintillation proximity assay (SPA) as described below. The native, human Ucn1 and Ucn2 peptides are included as references. Scintillation Proximity Assay: […] Both cell lines were cultured at 37° C. in a humidified atmosphere with 5% CO2. […] Membranes were prepared by the following protocol: cultured cells were washed twice with cold Dulbecco’s phosphate buffered saline and detached using TrypLE™ (ThermoFisher) and transferred to tubes and centrifuged for 5 minutes at 1000 g at +4° C. Pellets were resuspended in ice cold homogenization buffer (20 mM Hepes pH 7.1, 5 mM MgCl2, 1 mg/ml Bacitracin with 2 complete EDTA-free protease inhibitor cocktail tablets/50 ml (Roche)) and then homogenized for 30 seconds using a Ultra-Turrax T25 tissue homogenizer (IKA) at medium speed. The homogenate was centrifuged at 35,000 g for 15 minutes at +4° C. using an ultracentrifuge, and the supernatant was discarded, and fresh homogenization buffer was added. Homogenization of the pellet was repeated a total of three times. The final pellet was resuspended in a few millilitres of homogenization buffer and protein concentration was determined using the Bradford method. The membrane preparation was transferred to cryotubes, and the aliquots were stored at -80° C. Each membrane preparation was subsequently titrated to give an appropriate window in the assay. Test procedure: […] Plates were sealed and incubated at 25° C. for 2 hours in a plate shaker set at 400 rpm and thereafter centrifuged at 1500 rpm for 10 minutes. SPA plates were let to stand at room temperature for about 16 hours prior to reading on microplate scintillation counter. Displacement of radioligand was measured as reduction in luminescence, and IC50 values were calculated by nonlinear regression analysis of four parameter sigmoidal dose-response curves.
# [1] = Pharmacokinetic study in minipigs after intravenous administration; format: in vivo; details: female, Göttingen, minipig, plasma, i.v., 2 nmol/kg, harmonic mean, read-out: Terminal half-life (converted)
# Description: The purpose of this investigation was to determine the in vivo half-life of the compounds of the invention after i.v. administration to minipigs using a pharmacokinetic (PK) study in Göttingen Minipigs assessing terminal half-life. The expression ‘terminal half-life’ as used herein, and means the time period required to reduce the plasma concentration by 50%, measured after the initial distribution phase.
# Animals and housing: Female Göttingen Minipigs, weighing approximately 15-25 kg, were obtained from Ellegaard Minipigs, Dalmose Denmark. The minipigs were housed individually in the Animal Unit at BioAdvice A/S, ∅lstykke Denmark (later Minerva Imaging A/S) and were fed restrictedly twice daily with Altromin 9033 (Chr. Petersen A/S, Ringsted, Denmark). […]
# Administration of peptides and dosing solutions: There were no food restrictions during the study and the animals had ad libitum access to water during the whole study period. […] The plasma samples were analysed as described below.
# Quantitative Assay for Plasma Samples: The test compound was assayed in plasma by turbulent flow chromatography coupled to liquid chromatography mass spectrometric (LCMS) detection. The selectivity of the method allowed various test compounds to be quantitated in one sample, e.g. cassette dosing. […]
Structure (SMILES),IC50 (Human CRF1 receptor),half-life [1]
CC[C@H](C)[C@H](NC(=O)[C@H](CCC(=O)O)NC(=O)[C@H](C)NC(=O)[C@H](CC(N)=O)NC(=O)[C@@H](NC(=O)[C@@H](NC(=O)[C@H](C)NC(=O)[C@H](CCC(N)=O)NC(=O)[C@H](CCC(=O)O)NC(=O)[C@H](CCCNC(=N)N)NC(=O)[C@H](C)NC(=O)[C@H](C)NC(=O)[C@H](CCCNC(=N)N)NC(=O)[C@H](C)NC(=O)[C@H](CCCNC(=N)N)NC(=O)[C@H](C)NC(=O)[C@H](CCC(N)=O)NC(=O)[C@H](CCC(=O)O)NC(=O)[C@H](CC(C)C)NC(=O)[C@H](CC(C)C)NC(=O)[C@@H](NC(=O)[C@H](CCC(N)=O)NC(=O)[C@H](CC(C)C)NC(=O)[C@H](CC(C)C)NC(=O)CNC(=O)[C@@H](NC(=O)[C@@H]1CCCN1C(=O)[C@@H](NC(=O)[C@H](CC(=O)O)NC(=O)[C@H](CC(C)C)NC(=O)[C@H](CO)NC(=O)[C@H](CC(C)C)NC(=O)[C@@H](NC(=O)[C@@H](NC(=O)[C@@H](N)CCCCNC(=O)COCCOCCNC(=O)COCCOCCNC(=O)CC[C@H](NC(=O)CC[C@H](NC(=O)CC[C@H](NC(=O)CCCCCCCCCCCCCCCCCCC(=O)O)C(=O)O)C(=O)O)C(=O)O)[C@@H](C)CC)C(C)C)C(C)C)[C@@H](C)CC)[C@@H](C)CC)[C@@H](C)O)[C@@H](C)O)C(=O)N[C@@H](CC(C)C)C(=O)N[C@@H](C)C(=O)N[C@@H](CCC(=O)O)C(=O)N[C@H](C(N)=O)C(C)C [Compound 3] (H-K([AEEA-AEEA-γGlu-γGlu-γGlu-C20 diacid])IVLSLDVPIGLLQILLEQARARAAREQATTNAEILAEV-NH2),> 1 µM,96 h
CC[C@H](C)[C@H](NC(=O)[C@H](CCC(=O)O)NC(=O)[C@H](C)NC(=O)[C@H](CC(N)=O)NC(=O)[C@@H](NC(=O)[C@@H](NC(=O)[C@H](C)NC(=O)[C@H](CCC(N)=O)NC(=O)[C@H](CCC(=O)O)NC(=O)[C@H](CCCNC(=N)N)NC(=O)[C@H](C)NC(=O)[C@H](C)NC(=O)[C@H](CCCNC(=N)N)NC(=O)[C@H](C)NC(=O)[C@H](CCCNC(=N)N)NC(=O)[C@H](C)NC(=O)[C@H](CCC(N)=O)NC(=O)[C@H](CCC(=O)O)NC(=O)[C@H](CC(C)C)NC(=O)[C@H](CC(C)C)NC(=O)[C@@H](NC(=O)[C@H](CCC(N)=O)NC(=O)[C@H](CC(C)C)NC(=O)[C@H](CC(C)C)NC(=O)CNC(=O)[C@@H](NC(=O)[C@@H]1CCCN1C(=O)[C@@H](NC(=O)[C@H](CC(=O)O)NC(=O)[C@H](CC(C)C)NC(=O)[C@H](CO)NC(=O)[C@H](CC(C)C)NC(=O)[C@@H](NC(=O)[C@@H](NC(=O)[C@@H](N)CCCCNC(=O)COCCOCCNC(=O)COCCOCCNC(=O)CC[C@H](NC(=O)CC[C@H](NC(=O)CC[C@H](NC(=O)CCCCCCCCCCCCCCCCCCC(=O)O)C(=O)O)C(=O)O)C(=O)O)[C@@H](C)CC)C(C)C)C(C)C)[C@@H](C)CC)[C@@H](C)CC)[C@@H](C)O)[C@@H](C)O)C(=O)N[C@@H](CC(C)C)C(=O)N[C@@H](CCC(=O)O)C(=O)N[C@@H](CCCNC(=N)N)C(=O)N[C@H](C(N)=O)C(C)C [Compound 4] (H-K([AEEA-AEEA-γGlu-γGlu-γGlu-C20 diacid])IVLSLDVPIGLLQILLEQARARAAREQATTNAEILERV-NH2),> 1 µM,103 h
